Data: patent US9873680B2 (Gilead Sciences, Inc., priority 2014, dated 2018)
Like-named read-outs stand apart in the source and are kept apart here.

Columns and labels:
[1] = Test B: Cytotoxicity Assay; format: cell-based; conditions: human, uninfected MT-4 cells, CellTiter-Glo
Experimental: Test B: Cytotoxicity Assay Compound cytotoxicity and the corresponding CC50 values was determined using the same protocol as described in the antiviral assay (Test A) except that uninfected cells were used.

HIV-IIIb = experiment: Test A: Antiviral Assay in MT4 Cells; format: cell-based, HIV-1; conditions: for inhibition at 0.2 µM: 0.2 μM drug concentration; for inhibition at 2 µM: 2 μM drug concentration, read-out: Response at 2 μM (percent inhibition of virus-induced cell killing)
In short: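 MT-4 cells were preinfected with HIV-IIIb […]. Cell viability, as protection from viral cytopathic effect, was read by CellTiter-Glo chemiluminescence.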

[2] = Human immunodeficiency virus 1, MT4, 120 h, MT-4 cells infected with HIV-IIIb, 5 days, values normalized to 100%, average over time, read-out: % inhibition at 0.2 μM (percent inhibition of virus-induced cell killing)
[3] = Human immunodeficiency virus 1, IIIB, MT4, comparison with previously published compounds, read-out: Response at 0.2 μM (percent inhibition of virus-induced cell killing)
[4] = Human immunodeficiency virus 1, IIIB, MT4, comparison with previously published compounds

| SMILES | CC50 at 5 days [1] [µM] | inhibition at 0.2 µM (HIV-IIIb; [2]) [%] | inhibition at 0.2 µM (HIV-IIIb; [3]) [%] | inhibition at 2 µM (HIV-IIIb; [4]) [%] |
| --- | --- | --- | --- | --- |
| Cc1cc(C#Cc2ncc(-c3ccc4c(c3)C(=O)NC4)c([C@H](Cc3cc(F)cc(F)c3)NC(=O)Cn3nc(C(F)F)c4c3C(F)(F)CCC4(F)F)n2)ccn1 [Compound 11, (S)-2-(3-(difluoromethyl)-4,4,7,7-tetrafluoro-4,5,6,7-tetrahydro-1H-indazol-1-yl)-N-(2-(3,5-difluorophenyl)-1-(2-((2-methylpyridin-4-yl)ethynyl)-5-(3-oxoisoindolin-5-yl)pyrimidin-4-yl)ethyl)acetamide] | 0.761 | 69 | – | – |
| Cn1nc(NS(C)(=O)=O)c2cccc(-c3ccc(C#CC4(O)CCOC4)nc3[C@H](Cc3cc(F)cc(F)c3)NC(=O)Cn3nc(C(F)(F)F)c4c3C(F)(F)[C@@H]3C[C@H]43)c21 (stereo partly drawn) [Compound 30B, 2-((3bS,4aR)-5,5-difluoro-3-(trifluoromethyl)-3b,4,4a,5-tetrahydro-1H-cyclopropa[3,4]cyclopenta[1,2-c]pyrazol-1-yl)-N-((1S)-2-(3,5-difluorophenyl)-1-(6-((3-hydroxytetrahydrofuran-3-yl)ethynyl)-3-(1-methyl-3-(methylsulfonamido)-1H-indazol-7-yl)pyridin-2-yl)ethyl)acetamide] | 19.5 | 100 | – | – |
| Cn1nc(NS(C)(=O)=O)c2c(Cl)ccc(-c3ccc(C#CC4(C)OCCn5ccnc54)nc3[C@H](Cc3cc(F)cc(F)c3)NC(=O)Cn3nc(C(F)F)c4c3C(F)(F)[C@@H]3C[C@H]43)c21 (stereo partly drawn) [Compound 82, N-((1S)-1-(3-(4-chloro-1-methyl-3-(methylsulfonamido)-1H-indazol-7-yl)-6-((8-methyl-6,8-dihydro-5H-imidazo[2,1-c][1,4]oxazin-8-yl)ethynyl)pyridin-2-yl)-2-(3,5-difluorophenyl)ethyl)-2-((3bS,4aR)-3-(difluoromethyl)-5,5-difluoro-3b,4,4a,5-tetrahydro-1H-cyclopropa[3,4]cyclopenta[1,2-c]pyrazol-1-yl)acetamide] | 29.6 | 90 | – | – |
| NC(=O)c1cc(-c2ccc(C#CC3(O)CC(F)(F)C3)nc2[C@H](Cc2cc(F)cc(F)c2)NC(=O)Cn2nc(C(F)F)c3c2C(F)(F)[C@@H]2C[C@H]32)ccc1F [Compound 106C, 5-(6-((3,3-difluoro-1-hydroxycyclobutyl)ethynyl)-2-((S)-1-(2-((3bS,4aR)-3-(difluoromethyl)-5,5-difluoro-3b,4,4a,5-tetrahydro-1H-cyclopropa[3,4]cyclopenta[1,2-c]pyrazol-1-yl)acetamido)-2-(3,5-difluorophenyl)ethyl)pyridin-3-yl)-2-fluorobenzamide] | 2.85 | 100 | – | – |
| Cn1nc(NS(C)(=O)=O)c2c(Cl)ccc(-c3ccc(C#CC4(O)CCC4)nc3[C@H](Cc3cc(F)cc(F)c3)NC(=O)Cn3nc(C(F)F)c4c3C(F)(F)[C@@H]3C[C@H]43)c21 [Compound 69, N—((S)-1-(3-(4-chloro-1-methyl-3-(methylsulfonamido)-1H-indazol-7-yl)-6-((1-hydroxycyclobutyl)ethynyl)pyridin-2-yl)-2-(3,5-difluorophenyl)ethyl)-2-((3bS,4aR)-3-(difluoromethyl)-5,5-difluoro-3b,4,4a,5-tetrahydro-1H-cyclopropa[3,4]cyclopenta[1,2-c]pyrazol-1-yl)acetamide] | 13.6 | 96 | – | – |
| Cn1nc(NS(C)(=O)=O)c2c(Cl)ccc(-c3ccc(C#C[C@]4(C)CNCCO4)nc3[C@H](Cc3cc(F)cc(F)c3)NC(=O)Cn3nc(C(F)(F)F)c4c3C(F)(F)[C@@H]3C[C@H]43)c21 [Compound 83G, N—((S)-1-(3-(4-chloro-1-methyl-3-(methylsulfonamido)-1H-indazol-7-yl)-6-(((R)-2-methylmorpholin-2-yl)ethynyl)pyridin-2-yl)-2-(3,5-difluorophenyl)ethyl)-2-((3bS,4aR)-5,5-difluoro-3-(trifluoromethyl)-3b,4,4a,5-tetrahydro-1H-cyclopropa[3,4]cyclopenta[1,2-c]pyrazol-1-yl)acetamide] | 6.57 | 90 | – | – |
| CC(O)(C#Cc1ccc(-c2ccc(F)c(C(N)=O)c2)c([C@H](Cc2cc(F)cc(F)c2)NC(=O)Cn2nc(C(F)(F)F)c3c2C(F)(F)[C@@H]2C[C@H]32)n1)c1ccccc1 (stereo partly drawn) [Compound 17, 5-(2-((S)-1-(2-((3bS,4aR)-5,5-difluoro-3-(trifluoromethyl)-3b,4,4a,5-tetrahydro-1H-cyclopropa[3,4]cyclopenta[1,2-c]pyrazol-1-yl)acetamido)-2-(3,5-difluorophenyl)ethyl)-6-(3-hydroxy-3-phenylbut-1-yn-1-yl)pyridin-3-yl)-2-fluorobenzamide] | 3.06 | 66 | 66 | 73 |
| NC(=O)c1cc(-c2ccc(C#CC3(O)CC(F)(F)C3)nc2[C@H](Cc2cc(F)cc(F)c2)NC(=O)Cn2nc(C(F)(F)F)c3c2C(F)(F)[C@@H]2C[C@H]32)ccc1F [Compound 107, 5-(6-((3,3-difluoro-1-hydroxycyclobutyl)ethynyl)-2-((S)-1-(2-((3bS,4aR)-5,5-difluoro-3-(trifluoromethyl)-3b,4,4a,5-tetrahydro-1H-cyclopropa[3,4]cyclopenta[1,2-c]pyrazol-1-yl)acetamido)-2-(3,5-difluorophenyl)ethyl)pyridin-3-yl)-2-fluorobenzamide] | 3.64 | 99 | 99 | 99 |
| Cn1nc(NS(C)(=O)=O)c2c(Cl)ccc(-c3ccc(C#CC4(O)CCNC4)nc3[C@H](Cc3cc(F)cc(F)c3)NC(=O)Cn3nc(C(F)(F)F)c4c3C(F)(F)[C@@H]3C[C@H]43)c21 (stereo partly drawn) [Compound 58, N-((1S)-1-(3-(4-chloro-1-methyl-3-(methylsulfonamido)-1H-indazol-7-yl)-6-((3-hydroxypyrrolidin-3-yl)ethynyl)pyridin-2-yl)-2-(3,5-difluorophenyl)ethyl)-2-((3bS,4aR)-5,5-difluoro-3-(trifluoromethyl)-3b,4,4a,5-tetrahydro-1H-cyclopropa[3,4]cyclopenta[1,2-c]pyrazol-1-yl)acetamide] | 5.19 | 91 | – | – |
| Cn1nc(O)c2c(Cl)ccc(-c3ccc(C#CC4(O)CCOCC4)nc3[C@H](Cc3cc(F)cc(F)c3)NC(=O)Cn3nc(C(F)F)c4c3C(F)(F)[C@@H]3C[C@H]43)c21 [Compound 109E, N—((S)-1-(3-(4-chloro-3-hydroxy-1-methyl-1H-indazol-7-yl)-6-((4-hydroxytetrahydro-2H-pyran-4-yl)ethynyl)pyridin-2-yl)-2-(3,5-difluorophenyl)ethyl)-2-((3bS,4aR)-3-(difluoromethyl)-5,5-difluoro-3b,4,4a,5-tetrahydro-1H-cyclopropa[3,4]cyclopenta[1,2-c]pyrazol-1-yl)acetamide] | 22.3 | 100 | – | – |
| CN1CCC(O)(C#Cc2ccc(-c3cccc4c(NS(C)(=O)=O)nn(C)c34)c([C@H](Cc3cc(F)cc(F)c3)NC(=O)Cn3nc(C(F)(F)F)c4c3C(F)(F)[C@@H]3C[C@H]43)n2)CC1 [Compound 31, 2-((3bS,4aR)-5,5-difluoro-3-(trifluoromethyl)-3b,4,4a,5-tetrahydro-1H-cyclopropa[3,4]cyclopenta[1,2-c]pyrazol-1-yl)-N—((S)-2-(3,5-difluorophenyl)-1-(6-((4-hydroxy-1-methylpiperidin-4-yl)ethynyl)-3-(1-methyl-3-(methylsulfonamido)-1H-indazol-7-yl)pyridin-2-yl)ethyl)acetamide] | 20.2 | 93 | – | – |
| Cn1nc(NS(C)(=O)=O)c2c(Cl)ccc(-c3ccc(C#CC4(O)CCCNC4)nc3[C@H](Cc3cc(F)cc(F)c3)NC(=O)Cn3nc(C(F)(F)F)c4c3C(F)(F)[C@@H]3C[C@H]43)c21 (stereo partly drawn) [Compound 75, N-((1S)-1-(3-(4-chloro-1-methyl-3-(methylsulfonamido)-1H-indazol-7-yl)-6-((3-hydroxypiperidin-3-yl)ethynyl)pyridin-2-yl)-2-(3,5-difluorophenyl)ethyl)-2-((3bS,4aR)-5,5-difluoro-3-(trifluoromethyl)-3b,4,4a,5-tetrahydro-1H-cyclopropa[3,4]cyclopenta[1,2-c]pyrazol-1-yl)acetamide] | 5.59 | 81 | – | – |
| Cn1nc(NS(C)(=O)=O)c2cccc(-c3ccc(C#CC4(O)COC4)nc3[C@H](Cc3cc(F)cc(F)c3)NC(=O)Cn3nc(C(F)(F)F)c4c3C(F)(F)[C@@H]3C[C@H]43)c21 [Compound 20E, 2-((3bS,4aR)-5,5-difluoro-3-(trifluoromethyl)-3b,4,4a,5-tetrahydro-1H-cyclopropa[3,4]cyclopenta[1,2-c]pyrazol-1-yl)-N—((S)-2-(3,5-difluorophenyl)-1-(6-((3-hydroxyoxetan-3-yl)ethynyl)-3-(1-methyl-3-(methylsulfonamido)-1H-indazol-7-yl)pyridin-2-yl)ethyl)acetamide] | 27.7 | 94 | – | – |
| O=C(Cn1nc(C(F)F)c2c1C(F)(F)CCC2(F)F)N[C@@H](Cc1cc(F)cc(F)c1)c1nc(C#Cc2ccc3[nH]c(=O)ccc3c2)ccc1-c1cnc2[nH]ccc2c1 [Compound 5, (S)-2-(3-(difluoromethyl)-4,4,7,7-tetrafluoro-4,5,6,7-tetrahydro-1H-indazol-1-yl)-N-(2-(3,5-difluorophenyl)-1-(6-((2-oxo-1,2-dihydroquinolin-6-yl)ethynyl)-3-(1H-pyrrolo[2,3-b]pyridin-5-yl)pyridin-2-yl)ethyl)acetamide] | > 53.2 | 5 | – | – |
